Assay results: patent US20220401414A1, “TREATMENT AND PREVENTION OF A NEURODEGENERATIVE DISORDER” (Inflazome Limited, priority 2019, published 2022)

Key:
[1] = test system: PFF-Synuclein model of Parkinson's disease; experiment: Study H: rotarod test in the PFF-Synuclein mouse model; format: in vivo, C57BL6 mice; conditions: 4, 6, 8 and 10 months
Excerpt: To determine the oral efficacy of the compound of formula (I) in a chronic progressive model of Parkinson's disease (PD), the preformed fibrils (PFF) mouse model, using a prophylactic and therapeutic dosing schedule.
8-week-old C57BL6 male mice (obtained from ARC, Perth, Australia) were housed under a 12-h light cycle in a SPF climate-controlled facility with food and water provided ad libitum for two weeks prior to study initiation. The compound of formula (I) (or water alone for control animals) was administrated to mice in drinking water at 0.3 mg/ml. Animals were separated into the groups described in Table 9, with ten animals initiated in each cohort. […]
Recombinant human a-synuclein was obtained from rPeptide Inc., and in vitro fibril generation was performed with a final concentration of 2 mg/ml in phosphate-buffered saline (PBS) by incubation at 37° C. with agitation in an orbital mixer (400 rpm) for 7 days with daily cycles of sonication used to break down fibrillar aggregates as outlined in previously published reports (see Luk et al., Science, 2012, vol. 338(6109), pp. 949-53; and Zhang et al., Methods Mol. Biol., 2019, vol. 1948, pp. 45-57, which are incorporated in their entirety herein by reference). The generation of fibrillar α-synuclein species was confirmed by transmission electron microscopy and Thioflavin T fluorescence prior to use. […]

[2] = Study B: blood-brain barrier penetration, striatal MetaQuant microdialysis in unilateral 6-OHDA lesioned mice after oral dosing; format: in vivo, C57B1/6 mice; conditions: 6-OHDA mice; for average peak levels in left and right striatal dialysate: MetaQuant dialysate, not corrected for recovery (recovery 61%); for time of average peak levels after compound administration: striatal dialysate
Description: The present study was designed to assess the free concentration of the compound of formula (I) in the left and right striatum of freely-moving adult male mice with a unilateral 6-hydroxydopamine (6-OHDA) lesion.
Adult male C57B1/6 mice (23-28 g; Envigo, the Netherlands) were used for the experiments. Following arrival, animals were housed in groups of 5 in polypropylene cages (40×50×20 cm) with wire mesh top in a temperature (22±2° C.) and humidity (55±15%) controlled environment on a 12 hour light cycle (07.00-19.00). Following surgery, animals were housed individually (cages 30×30×40 cm). Standard diet (SDS Diets, RM1 PL) and domestic quality mains water were available ad libitum.
Mice were anesthetized using isoflurane (2% and 500 mL/min O2). Before surgery, Finadyne (1 mg/kg, s.c.) was administered for analgesia during surgery and the post-surgical recovery period. A mixture of bupivacaine and epinephrine was used for local analgesia of the incision site.
The animals were placed in a stereotaxic frame (Kopf instruments, USA). 10 μg of 6-OHDA in 2 μL saline was slowly injected into the right striatum using a Hamilton needle (coordinates for the tip of the needle: AP=−0.5 mm (to bregma), ML=−2.0 mm (to midline), DV=-4.0 mm (to dura) with an angle of 0° and the incisor bar set at 0.0 mm.
In the same surgical procedure, guides for MetaQuant microdialysis probes with a 3 mm exposed polyacrylonitrile membrane (MQ-PAN 3/3) were implanted bilaterally into the left and right striatum (coordinates for the tip of the probe: AP=+0.8 mm (to bregma), ML=+/−1.7 mm (to midline), DV=−4.0 mm (to dura) with an angle of 0° and the incisor bar set at 0.0 mm. All coordinates were based on “The mouse brain in stereotaxic coordinates” by Paxinos and Franklin (2008). The probes were attached to the skull with a stainless-steel screw and dental cement.
The monosodium salt of the compound of formula (I) was formulated in sterilized tap water at concentrations of 0.2 and 4 mg/mL for oral dosing at 5 mL/kg; 1 mg/kg and 20 mg/kg, respectively.
After recovery from lesion and the guide surgery, on day 10, MetaQuant microdialysis probes were connected with flexible PEEK tubing (Western Analytical Products Inc. USA; PK005-020) to a microperfusion pump (Harvard) and perfused with a slow flow of artificial CSF (perfusate), containing 147 mM NaCl, 3.0 mM KCl, 1.2 mM CaCl2, and 1.2 mM MgCl2, at a flow rate of 0.12 μL/min and a carrier flow of UP+0.02 M FA+0.04% ascorbic acid at 0.8 μL/min. After a minimum of two hours of prestabilisation, microdialysis samples were collected in 60 minute intervals. […]
Levels of the compound of formula (I) in MetaQuant microdialysate samples were quantified by LC-MS/MS. […]

average peak levels in left and right striatal dialysate ([2]; 1 mg/kg oral): 17 to 19 nM
time of average peak levels after compound administration ([2]; 1 mg/kg oral): 5 h
average peak levels in left and right striatal dialysate ([2]; 20 mg/kg oral): 280 to 300 nM
time of average peak levels after compound administration ([2]; 20 mg/kg oral): 6 h
SMILES: CC(C)n1ccc(S(=O)(=O)NC(=O)Nc2c3c(cc4c2CCC4)CCC3)n1 [compound of formula (I)]
performance on the rotarod ([1]; prophylactic: 0.3 mg/ml in drinking water from 24 h before PFF injection): improved performance on the rotarod
performance on the rotarod ([1]; therapeutic: 0.3 mg/ml in drinking water from 4 months after PFF injection): improved performance on the rotarod
